From patent publication US20240199647A1, “ANTI-VIRAL COMPOUNDS” (Aligos Therapeutics, Inc., priority 2022, published 2024)
Where two headings read alike, the source gives them in different places.

Assays:
[1] = test system: human beta-coronavirus OC43; assay: OC43 Coronavirus Assay in HeLa cells (antiviral, cytopathic effect, cell-titer-glo); type: cell-based; conditions: Betacoronavirus 1, OC43, HeLa, Table B; OC43 coronavirus in HeLa cells, class symbols; read-out: EC50
[2] = Cytotoxicity in HeLa cells without addition of OC43 virus (in parallel); conditions: human, HeLa cells, without OC43 virus
[3] = in vitro; conditions: human
[4] = molecular target: SARS-Cov-2 3CLpro (Severe acute respiratory syndrome coronavirus 2, UniProt P0DTD1); assay: biochemical; conditions: Table A, class symbols, read-out: SARS-Cov-2 (IC50)
[5] = test system: SARS-CoV-2 B.1.1.7 lineage; assay: microbe, parasite or virus in culture; type: cell-based; conditions: Severe acute respiratory syndrome coronavirus 2, Table C, SARS-CoV-2 B.1.1.7 in A549-dual_ACE2_TMPRSS2 cells, read-out: A549-dual_ACE2_TMPRSS2 (EC50)

## CN(C(=O)[C@H](CC1CC1)NC(=O)C(F)(F)F)[C@@H](CC(C)(C)C)C(=O)N1C[C@@]2(C[C@H]1C#N)Oc1ccccc1CNC2=O [Compound 164]
[1]
  EC50: < 0.1 µM
[2]
  CC50 at 6 days: > 10 µM
[3]
  CC50: > 1 µM
[4]
  IC50: < 0.02 µM
[5]; class symbols
  EC50: < 0.1 µM

## C[C@H](NC(=O)C(F)(F)F)C(=O)N(C)[C@@H](CC1CCC1)C(=O)N1C[C@@]2(C[C@H]1C#N)Oc1cccnc1NC2=O [Compound 165]
[1]
  EC50: < 0.1 µM
[2]
  CC50 at 6 days: > 10 µM
[3]
  CC50: > 1 µM
[4]
  IC50: < 0.02 µM
[5]; class symbols
  EC50: < 0.1 µM

## C[C@H](NC(=O)C(F)(F)F)C(=O)N(C)[C@@H](CC(C)(C)C)C(=O)N1C[C@@]2(C[C@H]1C#N)Oc1cccnc1NC2=O [Compound 166]
[1]
  EC50: < 0.1 µM
[2]
  CC50 at 6 days: > 10 µM
[3]
  CC50: > 1 µM
[4]
  IC50: < 0.02 µM
[5]; class symbols
  EC50: 0.1 to 1 µM

## CN(C(=O)[C@H](CC1CC1)NC(=O)C(F)(F)F)[C@@H](CC1CC1)C(=O)N1C[C@@]2(C[C@H]1C#N)Oc1ccc(F)cc1CNC2=O [Compound 167]
[1]
  EC50: < 0.1 µM
[2]
  CC50 at 6 days: > 10 µM
[3]
  CC50: > 1 µM
[4]
  IC50: < 0.02 µM
[5]; class symbols
  EC50: 0.1 to 1 µM

## CN(C(=O)[C@H](CC1CC1)NC(=O)C(F)(F)F)[C@@H](CC1CC1)C(=O)N1C[C@@]2(C[C@H]1C#N)Oc1c(F)cccc1CNC2=O [Compound 168]
[1]
  EC50: < 0.1 µM
[2]
  CC50 at 6 days: > 10 µM
[3]
  CC50: > 1 µM
[4]
  IC50: < 0.02 µM
[5]; class symbols
  EC50: < 0.1 µM

## C[C@H](NC(=O)C1(F)CC1)C(=O)N(C)[C@@H](CC1CC1)C(=O)N1C[C@@]2(C[C@H]1C#N)Oc1cccnc1NC2=O [Compound 169]
[1]
  EC50: < 0.1 µM
[2]
  CC50 at 6 days: > 10 µM
[3]
  CC50: > 1 µM
[4]
  IC50: < 0.02 µM
[5]; class symbols
  EC50: 0.1 to 1 µM

## C[C@H](NC(=O)C(F)(F)C(F)(F)F)C(=O)N(C)[C@@H](CC1CC1)C(=O)N1C[C@@]2(C[C@H]1C#N)Oc1cccnc1NC2=O [Compound 170]
[1]
  EC50: < 0.1 µM
[2]
  CC50 at 6 days: > 10 µM
[3]
  CC50: > 1 µM
[4]
  IC50: < 0.02 µM
[5]; class symbols
  EC50: < 0.1 µM

## CN(C(=O)c1cnc(C(F)(F)F)[nH]1)[C@@H](CC1CC1)C(=O)N1C[C@@]2(C[C@H]1C#N)Oc1cc(F)cc(F)c1NC2=O [Compound 171]
[1]
  EC50: 1 to 10 µM
[2]
  CC50 at 6 days: > 10 µM
[3]
  CC50: > 1 µM
[4]
  IC50: 0.02 to 0.2 µM
[5]; cells given as a bound
  EC50: > 1 µM

## CN(C(=O)[C@@H](CC1CC1)NC(=O)C(F)(F)F)[C@@H](CC1CC1)C(=O)N1C[C@@]2(C[C@H]1C#N)Oc1cccnc1NC2=O [Compound 172]
[1]
  EC50: 0.1 to 1 µM
[2]
  CC50 at 6 days: > 10 µM
[3]
  CC50: > 1 µM
[4]
  IC50: < 0.02 µM
[5]; class symbols
  EC50: 0.1 to 1 µM

## CN(C(=O)C1(NC(=O)C(F)(F)F)CCCCC1)[C@@H](CC1CC1)C(=O)N1C[C@@]2(C[C@H]1C#N)Oc1cccnc1NC2=O [Compound 173]
[1]
  EC50: 1 to 10 µM
[2]
  CC50 at 6 days: > 10 µM
[3]
  CC50: > 1 µM
[4]
  IC50: 0.2 to 2 µM
[5]; cells given as a bound
  EC50: > 1 µM

## C[C@H](NC(=O)C(F)(F)Cl)C(=O)N(C)[C@@H](CC1CC1)C(=O)N1C[C@@]2(CC1C#N)Oc1cccnc1NC2=O (some centres unmarked) [Compound 174]
[1]
  EC50: < 0.1 µM
[2]
  CC50 at 6 days: > 10 µM
[3]
  CC50: > 1 µM
[4]
  IC50: < 0.02 µM
[5]; class symbols
  EC50: < 0.1 µM

## CN(C(=O)[C@H](CC1CC1)NS(=O)(=O)C1CC1)[C@@H](CC1CC1)C(=O)N1C[C@@]2(C[C@H]1C#N)Oc1ccccc1CNC2=O [Compound 175]
[1]
  EC50: < 0.1 µM
[2]
  CC50 at 6 days: > 10 µM
[3]
  CC50: > 1 µM
[4]
  IC50: < 0.02 µM
[5]; class symbols
  EC50: 0.1 to 1 µM

## CN(C(=O)[C@H](CC1CC1)NC(=O)C1(F)CC1)[C@@H](CC1CC1)C(=O)N1C[C@@]2(CC1C#N)Oc1ccccc1CNC2=O (some centres unmarked) [Compound 176]
[1]
  EC50: < 0.1 µM
[2]
  CC50 at 6 days: > 10 µM
[3]
  CC50: > 1 µM
[4]
  IC50: < 0.02 µM
[5]; class symbols
  EC50: < 0.1 µM

## CC(C)[C@H](NC(=O)C(F)(F)F)C(=O)N(C)[C@@H](CC1CC1)C(=O)N1C[C@@]2(C[C@H]1C#N)Oc1cccnc1NC2=O [Compound 177]
[1]
  EC50: 0.1 to 1 µM
[2]
  CC50 at 6 days: > 10 µM
[3]
  CC50: > 1 µM
[4]
  IC50: < 0.02 µM
[5]; class symbols
  EC50: 0.1 to 1 µM

## CN(C(=O)[C@H](CC1CC1)NS(=O)(=O)C1CC1)[C@@H](CC1CC1)C(=O)N1C[C@@]2(C[C@H]1C#N)Oc1cccnc1NC2=O [Compound 178]
[1]
  EC50: < 0.1 µM
[2]
  CC50 at 6 days: > 10 µM
[3]
  CC50: > 1 µM
[4]
  IC50: < 0.02 µM
[5]; class symbols
  EC50: 0.1 to 1 µM

## CN(C(=O)[C@@H](NC(=O)C(F)(F)F)C1CC1)[C@@H](CC1CC1)C(=O)N1C[C@@]2(C[C@H]1C#N)Oc1cccnc1NC2=O [Compound 179]
[1]
  EC50: < 0.1 µM
[2]
  CC50 at 6 days: > 10 µM
[3]
  CC50: > 1 µM
[4]
  IC50: < 0.02 µM
[5]; class symbols
  EC50: 0.1 to 1 µM
